According to the supplement of paper PMC8960247:
± gives the standard error.

Columns and labels:
621-102 (TSC2-deficient) = experiment: relative viability vs DMSO; higher = less cytotoxic; conditions: serum: 10% FBS, 72 h
621-103 (TSC2-rescued) = experiment: as above; conditions: serum: 10% FBS, 72 h
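Note: immortalized renal angiomyolipoma cells stably carrying empty vector or TSC2, dosed in 384-well plates in DMEM, viability normalized to vehicle-treated wells within each plate.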

Structure (SMILES) | relative viability (621-102 (TSC2-deficient); 0.0001 µM) [%] | relative viability (621-102 (TSC2-deficient); 0.001 µM) [%] | relative viability (621-102 (TSC2-deficient); 0.01 µM) [%] | relative viability (621-102 (TSC2-deficient); 0.1 µM) [%] | relative viability (621-102 (TSC2-deficient); 1 µM) [%] | relative viability (621-102 (TSC2-deficient); 10 µM) [%] | relative viability (621-103 (TSC2-rescued); 0.0001 µM) [%] | relative viability (621-103 (TSC2-rescued); 0.001 µM) [%] | relative viability (621-103 (TSC2-rescued); 0.01 µM) [%] | relative viability (621-103 (TSC2-rescued); 0.1 µM) [%] | relative viability (621-103 (TSC2-rescued); 1 µM) [%] | relative viability (621-103 (TSC2-rescued); 10 µM) [%]
COc1cc(N2CCC(N3CCN(C)CC3)CC2)ccc1Nc1ncc(Cl)c(Nc2ccccc2S(=O)(=O)C(C)C)n1 [NVP-TAE684] | 105.9 ± 0.18 | 105 ± 2.5 | 100.1 ± 0.29 | 97.9 ± 2.6 | 80.8 ± 1.4 | 3.88 ± 1.5 | 98.4 ± 2.6 | 99.6 ± 1.4 | 99.8 ± 2 | 99.27 ± 0.36 | 75.2 ± 3.5 | 1.56 ± 0.21
CN(C)C/C=C/C(=O)Nc1cc2c(Nc3ccc(F)c(Cl)c3)ncnc2cc1O[C@H]1CCOC1 [BIBW2992 )Tovok)] | 115 ± 3 | 108.3 ± 0.98 | 110 ± 1.6 | 108 ± 3.2 | 91.85 ± 0.61 | 13.8 ± 1.6 | 98.7 ± 5.2 | 106.2 ± 1 | 103 ± 6 | 100.3 ± 0.78 | 78.3 ± 2.9 | 7.915 ± 0.042
Cc1ccc(NC(=O)c2ccc(CN3CCN(C)CC3)cc2)cc1Nc1nc(-c2cccnc2)cs1 [Masitinib (AB1010)] | 116 ± 1.7 | 103 ± 4.6 | 103 ± 6.5 | 115.4 ± 0.45 | 107 ± 2.1 | 53.4 ± 14 | 104.3 ± 0.28 | 105 ± 1.6 | 107.1 ± 0.95 | 103 ± 2.9 | 104 ± 1.3 | 36.5 ± 2.2
COC(=O)Nc1ccc(-c2nc(N3CCOCC3)c3cnn(C4CCN(Cc5cccnc5)CC4)c3n2)cc1 [WYE-687] | 97.311 ± 0.046 | 102 ± 3 | 99.7 ± 1.4 | 100 ± 2.7 | 59.1 ± 2.8 | 16.2 ± 0.8 | 113 ± 3.9 | 115.4 ± 1.1 | 113 ± 1.5 | 104 ± 2.3 | 55.5 ± 0.9 | 23.1 ± 0.089
Oc1nc(-c2ccc(C(F)(F)F)cc2)nc2c1CSCC2 [XAV-939] | 116 ± 0.67 | 112 ± 2.7 | 116 ± 5.5 | 120 ± 1.9 | 119.9 ± 0.91 | 102.42 ± 0.045 | 99.56 ± 0.24 | 104 ± 2.7 | 102 ± 2.3 | 102 ± 2 | 102 ± 1.7 | 102 ± 1.7
CC(=O)O[C@H]1C(=O)[C@@]2(C)[C@H]([C@H](OC(=O)c3ccccc3)[C@]3(O)C[C@H](OC(=O)[C@H](O)[C@@H](NC(=O)c4ccccc4)c4ccccc4)C(C)=C1C3(C)C)[C@]1(OC(C)=O)CO[C@@H]1C[C@@H]2O [Paclitaxel] | 54.2 ± 1.8 | 46.8 ± 2.3 | 33.66 ± 0.22 | 33.1 ± 0.46 | 29.6 ± 1.3 | 31.1 ± 2.3 | 69 ± 1.5 | 59.3 ± 0.96 | 40.8 ± 0.42 | 34.5 ± 0.39 | 28.7 ± 0.81 | 42.3 ± 0.75
COc1cc(Nc2ncc(F)c(Nc3ccc4c(n3)NC(=O)C(C)(C)O4)n2)cc(OC)c1OC [R406 (free base)] | 114.2 ± 0.84 | 110 ± 2.3 | 105 ± 1.1 | 105 ± 1.2 | 105.4 ± 0.42 | 101 ± 2.1 | 99.45 ± 0.77 | 98.41 ± 0.3 | 101.7 ± 0.23 | 99.5 ± 1.3 | 98.1 ± 0.7 | 70.26 ± 0.23
COc1ccc2c3n(c(=NC(=O)c4cccnc4)nc2c1OC)CCN3 [PIK-90] | 85.1 ± 3.9 | 107 ± 4.7 | 110 ± 2.5 | 112 ± 1.5 | 110 ± 1.3 | 96.7 ± 1.5 | 99 ± 1.5 | 99.75 ± 0.35 | 97.73 ± 0.84 | 97.82 ± 0.96 | 97.97 ± 0.66 | 73.4 ± 6.5
Cc1cnc(Nc2ccc(N3CCN(C)CC3)cc2)nc1Nc1cccc(S(=O)(=O)NC(C)(C)C)c1 | 116.1 ± 0.23 | 120 ± 3.8 | 109 ± 6.5 | 107 ± 2.4 | 80.4 ± 2.8 | 3.65 ± 0.42 | 102 ± 2.6 | 98.71 ± 0.22 | 95.5 ± 4.1 | 97.4 ± 1.1 | 51 ± 1.3 | 1.33 ± 0.2
Cc1nc(N)sc1-c1ccnc(Nc2ccc(N3CCOCC3)cc2)n1 [CYC116] | 90.7 ± 2.7 | 102 ± 4.6 | 113.07 ± 0.029 | 100.4 ± 0.47 | 93.08 ± 0.77 | 50.55 ± 0.13 | 91.6 ± 5.4 | 94.51 ± 0.42 | 101.6 ± 0.83 | 95.1 ± 4.3 | 72 ± 3.4 | 28.3 ± 0.44
O=c1cc(N2CCOCC2)oc2c(-c3ccccc3)cccc12 | 95.6 ± 1.2 | 111 ± 5 | 119.9 ± 0.6 | 113.8 ± 0.48 | 104 ± 1.5 | 80.2 ± 1.1 | 99.7 ± 1.1 | 100.3 ± 0.45 | 99.792 ± 0.068 | 97.55 ± 0.48 | 101.1 ± 0.21 | 65.2 ± 1.9
CCC(=O)O[C@H]1CC[C@H]2[C@@H]3CCC4=CC(=O)CC[C@]4(C)[C@H]3CC[C@]12C [Testosterone propionate (Agovirin)] | 104 ± 2.2 | 104 ± 1.2 | 98.7 ± 3.7 | 104 ± 1.1 | 104 ± 2.2 | 103 ± 4.2 | 109 ± 3.1 | 105 ± 1.9 | 104 ± 1.2 | 98.7 ± 2.8 | 102.1 ± 0.64 | 87.6 ± 1.6
CC(C)[C@H](C(=O)Nc1ccc(C(=O)NO)cc1)c1ccccc1 [AR-42 (HDAC-42)] | 94.68 ± 0.44 | 109 ± 2.2 | 90.8 ± 3.5 | 82.4 ± 0.9 | 61.7 ± 2.2 | 41 ± 1.6 | 109 ± 2 | 98.16 ± 0.28 | 102 ± 6.3 | 83.4 ± 3.6 | 41.07 ± 0.079 | 3.41 ± 0.081
COc1ccc2[nH]c([S@@+]([O-])Cc3ncc(C)c(OC)c3C)nc2c1 [Esomeprazole sodium (Nexium I.V.)] | 93.6 ± 1.3 | 107 ± 6.9 | 107 ± 3.4 | 97.9 ± 3.1 | 91.1 ± 1 | 88.632 ± 0.085 | 111 ± 0.41 | 99.3 ± 0.93 | 101.7 ± 0.45 | 112 ± 4 | 102 ± 2.5 | 86.24 ± 0.28
Cc1ncc(-c2ccnc(Nc3ccc(S(C)(=O)=O)cc3)n2)n1C(C)C [AZD5438] | 103 ± 7.6 | 101 ± 1.4 | 95.4 ± 1.6 | 99.55 ± 0.14 | 88.1 ± 1.8 | 11.69 ± 0.054 | 110.9 ± 0.22 | 105.8 ± 0.22 | 98.7 ± 4.7 | 108 ± 1.6 | 89.4 ± 2.3 | 27.7 ± 0.92
O=C(Nc1ccc(OC(F)(F)F)cc1)c1sccc1NCc1ccnc2ccccc12 [OSI-930] | 84 ± 2.4 | 116 ± 2.3 | 114 ± 4.7 | 111.7 ± 0.23 | 112 ± 1.4 | 108 ± 5 | 95.6 ± 0.43 | 106 ± 1.1 | 108 ± 3.1 | 108 ± 1.7 | 103 ± 1.7 | 100.9 ± 0.9
O=C(c1ccc(/C=C/c2n[nH]c3ccccc23)cc1)N1CCNCC1 [KW 2449] | 103 ± 1.6 | 92.5 ± 3.8 | 93.7 ± 0.96 | 94.1 ± 1.3 | 95.02 ± 0.93 | 37.58 ± 0.36 | 102.2 ± 0.34 | 101.3 ± 0.97 | 101.8 ± 0.59 | 102 ± 1.6 | 96.784 ± 0.018 | 15.1 ± 0.84
CCCCC1=NC2(CCCC2)C(=O)N1Cc1ccc(-c2ccccc2-c2nnn[nH]2)cc1 [Irbesartan (Avapro)] | 103.3 ± 0.78 | 100.8 ± 0.93 | 105 ± 3.8 | 101 ± 4.9 | 110 ± 1.1 | 104 ± 2.6 | 102 ± 1.3 | 96.3 ± 4.2 | 95.6 ± 3.6 | 102 ± 1.9 | 103 ± 4 | 107.2 ± 0.91
Nc1nc(=O)n([C@@H]2CS[C@H](CO)O2)cc1F [Emtricitabine] | 92.1 ± 2.5 | 90.4 ± 1.3 | 95.4 ± 1 | 88.7 ± 4.1 | 92 ± 9.3 | 83.5 ± 6.5 | 106 ± 1.1 | 110 ± 6.2 | 101 ± 4.7 | 105 ± 2.6 | 100 ± 3.7 | 98.4 ± 1.5
